Assay results: US7973166B2, “N-(2-aminophenyl)-4-[N-(pyridine-3-yl)-methoxycarbonyl-aminomethyl]-benzamide (MS-275) polymorph B” (Bayer Schering Pharma AG, priority 2008, dated 2011)

Tests used:
[1] = Thermodynamic stability of the solid state forms; format: physicochemical; conditions: at least in the relevant temperature range below 600 / below 60° C.
[2] = test system: DU-145 Human Prostate Carcinoma; assay: DU-145 human prostate carcinoma model in nude mice; format: in vivo; conditions: orally 10, 20 or 30 mg/kg in 30% HPβCD, tumor growth determined 27 to 56 days after tumor transplantation, versus vehicle control
Protocol: The active compound was applied in 30% HPβCD. As control, a vehicle of DMSO/ethanol 1.1 in 0.085% Myrj/NaCl/30% HPβCD was used. The tumor growth was determined after 27 to 56 days after tumor transplantation.

Row | SMILES | thermodynamic stability of the polymorph [1] | tumor growth [2]
1 | Nc1ccccc1NC(=O)c1ccc(CNC(=O)OCc2cccnc2)cc1 [polymorph A, N-(2-aminophenyl)-4-[N-(pyridine-3-yl)methoxycarbonylamino-methyl]benzamide, reference compound] | not the thermodynamically stable polymorph | –
2 | Nc1ccccc1NC(=O)c1ccc(CNC(=O)OCc2cccnc2)cc1 [polymorph B, N-(2-aminophenyl)-4-[N-(pyridine-3-yl)methoxy-carbonylamino-methyl]benzamide] | thermodynamically stable polymorph | clear inhibition
